The values that follow come from patent US20240174596A1 (Northwestern University, priority 2021, published 2024).

Assay [1] concerns the target T1, hOAT (Homo sapiens, UniProt P04181).
T1 construct: made in house; host or cells: E. coli BL21(DE3)
T1 sequence (P04181 26-439): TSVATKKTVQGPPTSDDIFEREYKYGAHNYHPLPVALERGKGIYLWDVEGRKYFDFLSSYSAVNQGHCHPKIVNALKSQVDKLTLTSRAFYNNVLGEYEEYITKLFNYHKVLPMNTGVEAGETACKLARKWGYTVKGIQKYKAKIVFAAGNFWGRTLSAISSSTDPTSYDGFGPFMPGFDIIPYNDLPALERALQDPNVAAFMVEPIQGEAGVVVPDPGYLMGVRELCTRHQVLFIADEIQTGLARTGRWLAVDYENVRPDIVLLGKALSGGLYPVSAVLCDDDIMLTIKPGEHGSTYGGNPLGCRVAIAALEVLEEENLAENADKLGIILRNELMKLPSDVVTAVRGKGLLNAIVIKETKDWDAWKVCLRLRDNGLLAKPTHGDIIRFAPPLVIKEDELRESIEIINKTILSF
Put plainly: Time-dependent inactivation of hOAT. The class given is biochemical. The following applies: for kinact/KI: inactivation efficiency; for KI (inactivator concentration for half-maximal inactivation): inhibitor concentration for half-maximal inactivation; for KI (inactivator concentration for half-maximal inactivation) / kinact: mean and standard error. Here is the method: (§1) All reagents for enzyme purification and assays were purchased from Sigma-Aldrich (St. Louis, MO, USA). Human OAT (0.672 mg/mL) was purified from E. coli BL21 (DE3) cells following the procedure described above, and coenzyme human recombinant pyrroline 5-carboxylate reductase (PYCRI) were expressed, grown, and purified according to a literature procedure.^4 γ-Aminobutyric acid aminotransferase (GABA-AT, 0.4 mg/mL) was purified from pig brain following a procedure described previously^5, and coenzyme succinic semialdehyde dehydrogenase (SSDH) was purified from GABase (catalog No. G7509-25UN, Sigma-Aldrich), a commercially available mixture of SSDH and GABA-AT, using a known procedure.^6 Commercially available L-aspartate aminotransferase (Asp-AT) from the porcine heart (catalog No. G2751-2KU, Sigma-Aldrich) and the desired assay coenzyme malic dehydrogenase from porcine (catalog No. M2634-5KU, Sigma-Aldrich), and L-alanine aminotransferase (Ala-AT) from the porcine heart (catalog No. G8255-200UN, Sigma-Aldrich) and the desired assay coenzyme lactate dehydrogenase from porcine (catalog No. 427211-50KU, Sigma-Aldrich) were used directly without further purification. All the enzyme assays for the inactivation, partition ratio, and dialysis experiment were recorded on a Synergy H1 hybrid multimode microplate reader (Biotek, USA) with transparent 96-well plates.
Time-dependent inactivation against hOAT was performed using an optimized procedure published previously.^7 10 μL of hOAT (0.025 mg/mL) was preincubated with 10 μL of various concentrations of tested compounds in 100 mM potassium pyrophosphate buffer (pH 8.0, 5 mM α-ketoglutarate, and 5 mM β-mercaptoethanol) at 25° C. in a 96-well plate. At time intervals, 80 μL of assay solution containing PYCR^1 (0.5 μg), 1 mM NADH, and 25 mM L-ornithine in the abovementioned potassium pyrophosphate buffer were added to the incubation mixture and assayed for OAT activity at 37° C. for 30 min. The change in UV absorbance at 340 nm at 37° C. based on the conversion of NADH to NAD was monitored by a microplate reader. All assays were performed in duplicate, and the remaining OAT activity at each preincubation time at each inhibitor concentration was averaged. The natural logarithm of the percentage of the remaining OAT activity was plotted against the preincubation time at each inhibitor concentration to obtain the kobs (slope) value for each concentration. The kobs value is the rate constant describing the inactivation at each inhibitor concentration. kobs is replotted against the inhibitor concentration using nonlinear regression analysis using GraphPad Prism 8.0. K1 and kinact values were estimated from equation (1)
where kinact is the maximal rate of inactivation, K1 is the inhibitor concentration required for half-maximal inactivation, and [I] is the preincubation concentration of the tested compound.

The target in assay [2] is T1, hOAT. The note with it: data extracted from Reference 9; cited from earlier work.
In assay [3] the target is T1, hOAT. The note with it: data extracted from Reference 9; cited from earlier work. This is another data set of the same source.
The subject of assay [4] is aspartate aminotransferase (Asp-AT). The following applies: up to 4 mM; cited from earlier work.
Assay [5] has as its system alanine aminotransferase (Ala-AT). The following applies: up to 4 mM; cited from earlier work.
In the next assay the test system is HCC mouse model. The following applies: 0.1 and 1.0 mg/kg; PO; cited from earlier work.
For assay [6], the target named is T2, GABA-AT (Sus scrofa, UniProt P80147). Put plainly: Reversible inhibition of GABA-AT (coupled assay with SSDH). The class given is biochemical, pig. More on the design: was purified from pig brain following a procedure described previously; from tissue; host or cells: pig brain. The following applies: for Ki: Ki = IC50/(1 + [S]/Km), 9-point assay. As to the method:
as §1
96-well plates were loaded with 80 μL of an assay mixture containing excess SSDH, 1 mM NADP^+, 11.1 mM GABA, and 10 μL of various concentrations of the tested compounds in 50 mM potassium pyrophosphate buffer (pH 8.5, 5 mM α-ketoglutarate, and 5 mM β-mercaptoethanol). […] The microplate was shaken at 25° C. for 1 min, and the remaining enzyme activity was determined by observing the change in absorbance at 340 nm at 25° C. based on the conversion of NADP^+ to NADPH. […] Subsequent Ki values were determined using equation (2) All assays were performed in duplicate.

Assay [7] concerns the target T1, hOAT. Put plainly: Fluoride ion release assay. The class given is biochemical. The following applies: without α-KG; triplicate, mean with standard deviation. As to the method:
The fluoride ion release assay was conducted using previous protocols.^10 The final concentration of enzyme in the sample was determined via BCA protein assay kit (Pierce, cat: 23225). A calibration curve of voltage (V, mV) was generated from varying concentrations of NaF (F, μM). For accurate detection of fluoride ion concentration, 10 μM of fluoride ion was added to each control and sample The number of fluoride ions released per active site was calculated by the ratio of the fluoride ion release concentration and enzyme concentration.

For assay [8], the target named is T1, hOAT. Put plainly: Partition ratio experiment (titration of hOAT). The class given is biochemical. The note with it: in the presence of α-KG. Here is the method:
FIG. 9. Titration of hOAT with SS-1-148. The loss of enzyme activity was measured as a function of the ratio of […] to enzyme concentration. Linear regression was used on the linear portion of the curves to obtain the X-intercept, which was the turnover number (partition ratio=turnover number−1).
The partition ratio was calculated using previous protocols.^8-10

Assay [9] concerns the target T1, hOAT. The note with it: literature; cited from earlier work.
Assay [10] deals with T2, GABA-AT. The following applies: literature, cited from earlier work.

Molecules are shown by their SMILES. Counter-ions that a name gives are not always drawn. Like-named read-outs stand apart in the source and are kept apart here. Marks after values point to notes of the source that are not given here.

T2 sequence (P80147 29-500): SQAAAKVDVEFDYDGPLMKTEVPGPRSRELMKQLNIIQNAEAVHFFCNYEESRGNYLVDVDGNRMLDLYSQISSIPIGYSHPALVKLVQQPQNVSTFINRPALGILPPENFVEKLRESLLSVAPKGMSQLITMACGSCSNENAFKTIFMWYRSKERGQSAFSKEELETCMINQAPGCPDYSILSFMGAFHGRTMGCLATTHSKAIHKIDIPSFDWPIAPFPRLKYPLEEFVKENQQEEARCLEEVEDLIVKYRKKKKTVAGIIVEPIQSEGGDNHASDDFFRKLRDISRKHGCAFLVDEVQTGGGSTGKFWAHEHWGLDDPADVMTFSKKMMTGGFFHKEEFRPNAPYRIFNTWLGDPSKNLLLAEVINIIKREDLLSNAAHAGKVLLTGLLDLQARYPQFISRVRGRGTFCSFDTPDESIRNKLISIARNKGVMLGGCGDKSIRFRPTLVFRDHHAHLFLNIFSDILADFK

As to `N[C@H]1C[C@@H](C(=O)O)CC1=C(C(F)(F)F)C(F)(F)F` [BCF3, (1S,3S)-3-Amino-4-(hexafluoropropan-2-ylidenyl)-cyclopentane-1-carboxylic Acid], at hOAT [1], the kinact/KI (in general, the maximal inactivation rate divided by the concentration that gives half of it) was 16.7 M⁻¹ s⁻¹; the KI (inactivator concentration for half-maximal inactivation) is 90 ± 30 µM; the kinact (usually the maximal first-order rate at which the target is inactivated) is 0.0015 s⁻¹. Besides, the Partition ratio on hOAT [2] is recorded as 12^b. Also, the Fluoride ion release at hOAT [3] was 79^b. For the same compound, in assay [4], the “inhibition on aspartate aminotransferase (Asp-AT)” value is listed as “no inhibition”. Also, the “inhibition on alanine aminotransferase (Ala-AT)” value in assay [5] is on record as “no inhibition”. Moreover, in the assay with HCC mouse model, the “serum AFP levels” value was “remarkably decreased” and the tumor growth result is “inhibited tumor growth”. Further, on GABA-AT [6], the inhibitory constant (Ki) (usually a dissociation constant, usually derived from enzyme kinetics or from competition with a known ligand) worked out at 5160 µM.

As to `N[C@H]1C[C@@H](C(=O)O)CC1(F)F` [Compound 4, (1R,4S)-4-Amino-3,3-difluorocyclopentanecarboxylic acid hydrochloric acid salt, reference compound], the Fluoride ion release at hOAT [7] worked out at 3395± 31.

For the compound `N[C@H]1CC(C(=O)O)=CC1(F)F` [Compound 5, (S)-4-Amino-3,3-difluorocyclopent-1-enecarboxylic acid], on hOAT [1], the second-order inactivation constant (kinact/KI) is 0.233 M⁻¹ s⁻¹, the KI (inactivator concentration for half-maximal inactivation) worked out at 2130 ± 900 µM and the maximal inactivation rate constant (kinact) is 0.0005 s⁻¹. Further, at hOAT [8], the Partition ratio stood at 817. Further, on hOAT [7], the Fluoride ion release is 754 ± 57. At GABA-AT [6], the “inhibitory activity against GABA-AT weaker than cyclopentane-based 4” value is “about 10 times” and the Ki worked out at 1340 µM.

`N[C@H]1C=C(C(=O)O)CCC1(F)F` [WZ-2-051, (S)-3-amino-4,4-difluorocyclohex-1-enecarboxylic acid]: on hOAT [9], the “improvement in inactivation efficiency (kinact/K1 ratio) against hOAT compared to BCF3” value is given as 23 fold. The “selectivity over GABA-AT” value at GABA-AT [10] (hOAT over GABA-AT) is on record as 13.3 fold. The “type of inhibition on GABA-AT” value on GABA-AT [10] is given as “apparent irresponsible inhibition”.
